Consider ten molecules from article PMC8308740 (Pharmaceuticals, 2021).

“And” between values parts separate entries of the source, which are not always exact repeats. Equal entries are not always repeated. “Also recorded” adds a separate entry of the source. Where two headings read alike, the source gives them in different places.

In data set [1] the target is T1, TbPTR1 (Trypanosoma brucei brucei, UniProt O76290).
T1 construct: His tag; made in house; host or cells: E. coli
T1 sequence (O76290 1-268): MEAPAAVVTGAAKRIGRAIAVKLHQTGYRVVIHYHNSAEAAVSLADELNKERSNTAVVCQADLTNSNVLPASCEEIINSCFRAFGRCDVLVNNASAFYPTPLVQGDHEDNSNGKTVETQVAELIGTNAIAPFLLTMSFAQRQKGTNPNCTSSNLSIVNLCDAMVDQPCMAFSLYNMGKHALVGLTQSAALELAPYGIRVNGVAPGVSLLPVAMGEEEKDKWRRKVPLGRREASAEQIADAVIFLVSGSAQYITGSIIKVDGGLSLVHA
The settings on record: read-out: TbPTR1 IC50; cited from earlier work.

For the next data set, the target named is T2, TbDHFR-TS (Trypanosoma brucei brucei, UniProt Q27783).
T2 construct: His tag; made in house; host or cells: E. coli
Nature of the data set: biochemical. Format: biochemical. The settings on record: for Selectivity IC50 hDHFR /IC50 TbDHFR-TS: ratio, PYR and CYC from Ki values. On the procedure:
(§1) Recombinant TbPTR1, TbDHFR-TS, and hDHFR were expressed in E. coli as histidine-tagged proteins and purified following established protocols. Purified recombinant enzymes were stored in stock solutions having concentrations of 0.93 mg/mL, 0.53 mg/mL, and 0.88 mg/mL, for TbPTR1, TbDHFR-TS, and hDHFR, respectively. A direct spectrophotometric kinetic test was used to evaluate the inhibitory activity of the compound library. A Jasco-V730 double beam spectrophotometer (Jasco Europe) was employed to perform the assays. Fixed final concentrations of purified TbPTR1, TbDHFR-TS, and hDHFR (15 nM, 55 nM, and 15 nM respectively) were incubated in semi-micro plastic cuvettes (Brand, Tech Scientific, Essex, UK) with 400 µL of sodium citrate buffer at pH = 3.7 and TES buffer (100 mM TES, 50 mM MgCl2, 13 mM CH2O, 2 mM EDTA, 150 mM 2-mercaptoethanol, pH 7.4), plus 25 µM 7,8-dihydro-L-biopterin (H2B, Sigma Aldrich) for TbPTR1 and 50 µM of 7,8-dihydrofolic acid (H2FA, Sigma Aldrich) for TbDHFR-TS and hDHFR enzymes.
(§2) Residual NADP(H) absorption (λmax = 340 nm), converted to NADP^+ as cofactor, was monitored for 180 s of the ongoing reaction and its Δ(OD)/min was registered for v(0) slope at 22.4 °C. Each inhibition assay was performed in triplicate, and five to six different concentrations of compounds were tested to assess their relative IC50.
(§3) The equation used to interpolate points was y = y(min) + (y(max) − y(min))/(1 + (IC50/x)^^HillSlope), where HillSlope was constrained at −1 (standard Michaelis–Menten behaviour for competitive inhibitors), from which IC50 were extrapolated. Standard deviations—as reported in Table 1—were obtained from 95% confidence interval (CI95) of fitting.

In data set [2] the target is T1, TbPTR1. The data set is described as follows: biochemical. The class given is biochemical. As to conditions: for Selectivity IC50 TbDHFR-TS /IC50 TbPTR1: ratio, for PYR and CYC calculated assuming a competitive inhibition mechanism; for IC50: recombinant enzyme, citrate buffer pH 3.7, 25 µM H2B, spread from CI95 of fitting; for fold improvement of inhibitory activity against TbPTR1 relative to CYC: versus CYC IC50. On the procedure: as §1, §2, §3

The target of a further data set is T3, hDHFR (Homo sapiens, UniProt P00374).
T3 construct: His tag; made in house; host or cells: E. coli
T3 sequence (P00374 1-187): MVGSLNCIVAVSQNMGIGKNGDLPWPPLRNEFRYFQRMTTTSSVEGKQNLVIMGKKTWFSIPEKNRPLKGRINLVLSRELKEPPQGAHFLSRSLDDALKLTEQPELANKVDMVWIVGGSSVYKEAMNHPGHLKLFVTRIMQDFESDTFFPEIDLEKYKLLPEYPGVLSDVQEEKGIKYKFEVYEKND
Nature of the data set: hDHFR spectrophotometric enzyme inhibition assay. Format: biochemical. The settings on record: TES buffer pH 7.4, 50 µM H2FA; spread from CI95 of fitting. As for the experimental part:
as §1, §2, §3

Data set [3] in a line: Stability of compound 6 in solution at different pH (HPLC-ELSD). The class given is physicochemical. As to conditions: pH 10.5, 7 and 3.7, room temperature, overnight / 30 h. On the procedure:
Although it was unusual, we suspected the potential hydrolysis of the acetamido group to generate an amine and acetic acid. Therefore, we tested the compound stability at pH 10.5, 7, and 3.7 overnight at room temperature.
We have studied the stability of the CYC-like compound 6 to test the hydrolysis of the N-acetyl group in different pH buffers and to screen its putative prodrug action. We prepared three 10 µM solutions from a 100 µM DMSO stock of compound 6 in double deionized water, at pH 10.5 with NaOH, and in citrate buffer, pH 3.7, used for kinetic assays with TbPTR1. We have monitored the purity of these solutions with HPLC–ELSD just after compound dilutions. A volume of 7 µL of each solution was immediately injected in an HPLC Atlantis dC18, 150 × 3.9 mm, 3 µm ID column (Waters Corp, Milford, MA, US) coupled to an ELSD detector (Agilent 1260 Infinity II system). Compounds were eluted with 0.1% formic acid in water (A) and pure acetonitrile (B), gradient 10% to 50% B for 10 min, at 0.5 mL min^−1, room temperature. Detector parameters were set as follows: Neb = 30 °C, Evap = 40 °C, N2 flow = 1.6 SLM, smoothing = 3.0 s. […] Compound stability also was evaluated with 1H-NMR, obtaining the same results. We thus concluded that compound 6 is not susceptible to pH mediated hydrolysis, and acts as a TbPTR1 inhibitor as N-acetylated compounds.

Data set [4] concerns the molecule itself. Nature of the data set: crystal structure; TbPTR1 crystals by hanging drop vapour diffusion at room temperature, 2-2.5 M sodium acetate, 0.1 M sodium citrate pH 5; soaked with 3 mM PYR; space group P21 with a functional tetramer in the asymmetric unit; NADP(H) bound.
Where [5] appears, read: TES buffer pH 7.4, 50 µM H2FA, spread from CI95 of fitting, read-out: TbDHFR-TS (IC50 µM).

One may read the IC50 as the concentration needed to halve the response being measured. The stoichiometry N is a count of units in the complex or per binding partner.

T2 sequence (Q27783 whole entry): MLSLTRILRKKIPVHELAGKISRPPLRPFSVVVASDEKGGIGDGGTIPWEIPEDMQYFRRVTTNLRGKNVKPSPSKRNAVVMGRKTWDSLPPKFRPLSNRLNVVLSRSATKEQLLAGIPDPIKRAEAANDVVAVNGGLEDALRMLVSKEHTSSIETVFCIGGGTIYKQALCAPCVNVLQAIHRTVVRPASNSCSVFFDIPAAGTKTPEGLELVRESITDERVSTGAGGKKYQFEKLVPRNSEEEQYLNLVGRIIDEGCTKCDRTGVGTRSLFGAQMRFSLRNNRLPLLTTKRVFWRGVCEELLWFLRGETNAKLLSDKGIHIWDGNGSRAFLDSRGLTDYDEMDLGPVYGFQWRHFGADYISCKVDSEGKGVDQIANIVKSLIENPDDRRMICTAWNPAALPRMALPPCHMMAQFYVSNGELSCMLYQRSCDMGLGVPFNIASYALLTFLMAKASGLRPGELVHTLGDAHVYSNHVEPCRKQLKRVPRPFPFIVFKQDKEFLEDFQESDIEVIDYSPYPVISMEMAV

On to `CC1(C)N=C(N)N=C(N)N1c1ccc(Cl)c(Cl)c1` [Compound 1a], for which the IC50 at TbPTR1 [1] is 0.692 µM.

`NC1=NC(c2ccc([N+](=O)[O-])cc2)N(c2ccc(Cl)c(Cl)c2)C(N)=N1` (stereo not shown) [Compound 2a]: the IC50 at TbPTR1 [1] is 0.186 µM.

With `COc1ccc(N2C(N)=NC(N)=NC2(C)C)cc1` [Compound 5, 1-(4-methoxyphenyl)-6,6-dimethyl-1,6-dihydro-1,3,5-triazine-2,4-diamine], the IC50 on TbDHFR-TS (setting [5]) worked out at 33.2 µM. Also, the “Selectivity IC50 hDHFR /IC50 TbDHFR-TS” value on TbDHFR-TS is 12.4. Further, at TbPTR1 [2], the “Selectivity IC50 TbDHFR-TS /IC50 TbPTR1” value is given as 49.6, the IC50 was 0.67 µM and the “fold improvement of inhibitory activity against TbPTR1 relative to CYC” value is recorded as 46 fold. Moreover, the IC50 at hDHFR is 413 µM.

With `CC1(C)N=C(N)N=C(N)N1c1ccc(Cl)cc1` [CYC, cycloguanil], on TbPTR1 [1], the concentration for half-maximal inhibition (IC50) was 31.6 µM.

As to `CC1N=C(N)N=C(N)N1c1ccc(Cl)cc1` (stereo not shown) [Compound 1], the IC50 at TbDHFR-TS is 103 µM; at TbPTR1 [2], 6.02 µM; against hDHFR it was 337 µM. Besides, at TbDHFR-TS, the “Selectivity IC50 hDHFR /IC50 TbDHFR-TS” value came to 3.27. On TbPTR1 [2], the “Selectivity IC50 TbDHFR-TS /IC50 TbPTR1” value is on record as 16.9.

On to `CC1(C)N=C(N)N=C(N)N1c1ccc(O)cc1` [Compound 4], for which the IC50 stood at 89 µM at TbDHFR-TS (setting [5]), 4.1 µM at TbPTR1 [2] and 284 µM against hDHFR. In addition, the “Selectivity IC50 hDHFR /IC50 TbDHFR-TS” value at TbDHFR-TS was determined as 3.19. Moreover, the “Selectivity IC50 TbDHFR-TS /IC50 TbPTR1” value on TbPTR1 [2] was 21.7.

In the case of `COc1ccc(N2C(N)=NC(NC(C)=O)=NC2(C)C)cc1` [Compound 6, N-[6-amino-5-(4-methoxyphenyl)-4,4-dimethyl-4,5-dihydrotriazin-2-yl]acetamide], the IC50 at TbDHFR-TS (setting [5]) was determined as 18.9 µM; on TbPTR1 [2] it was 0.83 µM; at hDHFR, 62.5 µM. Besides, at TbDHFR-TS, the “Selectivity IC50 hDHFR /IC50 TbDHFR-TS” value was 3.31. Also, the “Selectivity IC50 TbDHFR-TS /IC50 TbPTR1” value on TbPTR1 [2] is on record as 22.8. In data set [3], the “compound stability (hydrolysis of N-acetyl group), HPLC analysis” value is listed as “fully stable; also recorded: no changes in chromatograms were detected”.

Consider `CCCC1N=C(N)N=C(N)N1c1ccc(Cl)cc1` (stereo not shown) [Compound 2], for which the concentration for half-maximal inhibition (IC50) at TbDHFR-TS worked out at 7.26 µM; on TbPTR1 [2], 27.5 µM; against hDHFR, 66.7 µM. Moreover, the “Selectivity IC50 hDHFR /IC50 TbDHFR-TS” value on TbDHFR-TS is 9.2 and 9.19. In addition, the “Selectivity IC50 TbDHFR-TS /IC50 TbPTR1” value at TbPTR1 [2] is reported as 0.26.

As for `NC1=NC2(CCCCC2)N(c2ccc(Cl)cc2)C(N)=N1` [Compound 3], the IC50 at TbDHFR-TS (setting [5]) was 17.6 µM. For the same molecule, the “Selectivity IC50 hDHFR /IC50 TbDHFR-TS” value at TbDHFR-TS was 3.73. Further, at TbPTR1 [2], the “Selectivity IC50 TbDHFR-TS /IC50 TbPTR1” value is listed as 14.4, the IC50 was determined as 1.22 µM and the “fold improvement of inhibitory activity against TbPTR1 relative to CYC” value is given as 30 fold. In addition, at hDHFR, the IC50 turned out to be 65.6 µM.

B1: Trypanosoma brucei pteridine reductase 1 (enzyme)
chain: MEAPAAVVTGAAKRIGRAIAVKLHQTGYRVVIHYHNSAEAAVSLADELNKERSNTAVVCQADLTNSNVLPASCEEIINSCFRAFGRCDVLVNNASAFYPTPLVQGDHEDNSNGKTVETQVAELIGTNAIAPFLLTMSFAQRQKGTNPNCTSSNLSIVNLCDAMVDQPCMAFSLYNMGKHALVGLTQSAALELAPYGIRVNGVAPGVSLLPVAMGEEEKDKWRRKVPLGRREASAEQIADAVIFLVSGSAQYITGSIIKVDGGLSLVHA
notes: pteridine reductase 1 (PTR1) of Trypanosoma brucei, recombinant; also called TbPTR1; PTR1; source: E. coli, histidine-tagged, purified following established protocols
B1: the “stoichiometry N” value in data set [4] amounted to 4.
